The target of experiment [1] is T1, Corticotropin-releasing factor receptor 2/Corticotropin-releasing factor-binding protein (Homo sapiens, UniProt P24387+Q13324).
T1 sequence (Q13324 whole entry): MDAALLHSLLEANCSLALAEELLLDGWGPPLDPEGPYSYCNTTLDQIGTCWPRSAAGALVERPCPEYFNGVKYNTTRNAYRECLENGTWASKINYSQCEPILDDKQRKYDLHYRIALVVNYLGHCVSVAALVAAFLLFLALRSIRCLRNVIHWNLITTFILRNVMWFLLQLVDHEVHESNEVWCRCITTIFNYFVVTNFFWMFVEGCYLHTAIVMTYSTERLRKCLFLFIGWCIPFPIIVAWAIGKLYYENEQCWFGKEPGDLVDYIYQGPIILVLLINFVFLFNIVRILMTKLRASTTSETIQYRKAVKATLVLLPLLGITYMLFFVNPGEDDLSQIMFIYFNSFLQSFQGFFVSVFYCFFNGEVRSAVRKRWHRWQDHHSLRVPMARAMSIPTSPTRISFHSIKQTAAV
T1 sequence (P24387 whole entry): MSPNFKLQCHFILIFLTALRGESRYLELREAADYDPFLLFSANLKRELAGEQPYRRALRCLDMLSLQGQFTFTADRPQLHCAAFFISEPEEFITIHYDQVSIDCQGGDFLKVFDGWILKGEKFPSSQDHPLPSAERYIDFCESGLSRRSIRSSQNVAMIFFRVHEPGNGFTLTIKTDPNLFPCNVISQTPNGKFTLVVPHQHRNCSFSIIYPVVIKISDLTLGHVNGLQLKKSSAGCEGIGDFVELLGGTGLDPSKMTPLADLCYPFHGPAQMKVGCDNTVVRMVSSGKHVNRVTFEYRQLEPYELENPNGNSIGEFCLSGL
Nature of the experiment: Dose Response confirmation of uHTS hits for small molecule antagonists of the CRF-binding protein and CRF-R2 receptor complex. Particulars: read-out: IC50_Mean. Format: functional.

Experiment [2] addresses T1, Corticotropin-releasing factor receptor 2/Corticotropin-releasing factor-binding protein. Nature of the experiment: activators of CRF receptor 2 with binding protein – uHTS hits, confirmation (AID 602473). Format: functional. As to conditions: read-out: EC50_Mean.
A short description of experiment [3]: Luminescence Cell-Based Dose Confirmation HTS to Identify Activators of 5'UTR Stem-Loop Driven Alpha-Synuclein mRNA Translation in H4 Neuroglioblastoma Cells. [Related pubchem assays: 1829 (Project Summary), 1814 (Primary HTS)]. Format: functional.
For experiment [4], the system named is H4. Nature of the experiment: Luminescence Cell-Based Dose Response HTS to Identify Activators of 5'UTR Stem-Loop Driven Prion Protein mRNA Translation in H4 Neuroglioblastoma Cells. [Related pubchem assays: 1829 (Project Summary), 1814 (Primary HTS)]. Particulars: Homo sapiens. Format: functional.
Experiment [5] can be described thus: Luminescence Cell-Based Dose Response HTS to Identify Activators of Luciferase Translation or Activity in H4 […] Cells. [Related pubchem assays: 1829 (Project Summary), 1814 (Primary HTS)]. Format: functional.
Experiment [6] deals with T2, Replicative DNA helicase DnaB (Mycobacterium tuberculosis, UniProt P9WMR3).
T2 sequence (P9WMR3 whole entry): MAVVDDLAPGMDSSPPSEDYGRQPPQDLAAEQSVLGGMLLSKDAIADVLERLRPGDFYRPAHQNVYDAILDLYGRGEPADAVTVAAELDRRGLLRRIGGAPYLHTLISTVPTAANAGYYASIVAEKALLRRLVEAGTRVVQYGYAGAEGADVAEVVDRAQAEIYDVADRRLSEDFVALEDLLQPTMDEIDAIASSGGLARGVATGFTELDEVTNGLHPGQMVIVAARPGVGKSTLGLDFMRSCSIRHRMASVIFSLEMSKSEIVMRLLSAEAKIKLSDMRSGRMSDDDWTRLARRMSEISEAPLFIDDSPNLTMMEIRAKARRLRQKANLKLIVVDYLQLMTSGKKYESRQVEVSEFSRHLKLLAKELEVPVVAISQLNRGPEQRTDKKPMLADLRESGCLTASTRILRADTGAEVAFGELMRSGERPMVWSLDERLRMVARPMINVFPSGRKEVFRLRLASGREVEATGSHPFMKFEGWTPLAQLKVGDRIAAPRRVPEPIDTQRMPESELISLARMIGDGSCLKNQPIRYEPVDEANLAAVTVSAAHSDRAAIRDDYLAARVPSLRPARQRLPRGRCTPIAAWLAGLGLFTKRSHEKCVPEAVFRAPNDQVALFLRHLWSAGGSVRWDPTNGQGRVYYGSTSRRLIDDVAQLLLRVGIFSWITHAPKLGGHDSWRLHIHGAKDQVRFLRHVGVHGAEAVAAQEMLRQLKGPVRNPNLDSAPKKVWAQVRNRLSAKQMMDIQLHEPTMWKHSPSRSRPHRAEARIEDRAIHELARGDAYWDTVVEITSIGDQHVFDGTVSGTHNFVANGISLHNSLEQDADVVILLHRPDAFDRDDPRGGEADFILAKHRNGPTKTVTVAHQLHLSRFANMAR
Nature of the experiment: DnaB intein splicing inhibitors, dose response, biochemical, cell-free fluorescence (AID 449749). In kind it is functional.

In experiment [7] the target is T3, Protein RecA (Mycobacterium tuberculosis, UniProt P9WHJ3).
T3 sequence (P9WHJ3 whole entry): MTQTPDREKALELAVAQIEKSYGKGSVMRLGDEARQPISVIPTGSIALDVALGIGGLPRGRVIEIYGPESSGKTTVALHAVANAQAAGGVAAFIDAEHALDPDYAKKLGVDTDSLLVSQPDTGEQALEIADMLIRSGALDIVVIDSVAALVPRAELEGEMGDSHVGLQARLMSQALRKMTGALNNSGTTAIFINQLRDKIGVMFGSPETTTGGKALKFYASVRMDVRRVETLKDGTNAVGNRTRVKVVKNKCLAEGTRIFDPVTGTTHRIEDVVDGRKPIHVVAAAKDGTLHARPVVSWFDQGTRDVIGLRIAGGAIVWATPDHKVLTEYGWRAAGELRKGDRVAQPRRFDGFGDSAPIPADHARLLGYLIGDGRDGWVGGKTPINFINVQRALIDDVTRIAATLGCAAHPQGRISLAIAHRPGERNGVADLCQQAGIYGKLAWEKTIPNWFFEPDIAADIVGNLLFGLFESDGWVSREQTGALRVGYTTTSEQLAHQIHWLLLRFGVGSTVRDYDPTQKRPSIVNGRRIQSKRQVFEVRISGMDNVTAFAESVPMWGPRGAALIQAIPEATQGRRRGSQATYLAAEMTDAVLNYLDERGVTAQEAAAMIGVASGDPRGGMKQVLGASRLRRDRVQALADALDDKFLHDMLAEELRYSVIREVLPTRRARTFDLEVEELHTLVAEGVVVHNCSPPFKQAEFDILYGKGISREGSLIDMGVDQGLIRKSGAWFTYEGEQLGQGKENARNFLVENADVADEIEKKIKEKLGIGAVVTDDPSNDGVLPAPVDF
Nature of the experiment: Fluorescence Cell-Free Homogeneous Dose Retest to Identify Inhibitors of RecA-Intein Splicing Activity. [Related pubchem assays (depositor defined):AID2097, AID2223, AID489010, AID492950]. Format: functional.

Experiment [8] deals with Cytochrome P450 2C19 (Homo sapiens, UniProt P33261). Nature of the experiment: Cytochrome panel assay with activity outcomes. Panel member name: p450-cyp2c19 Compounds with AC50 equal or less than 10 uM are considered active. In kind it is functional. As to conditions: read-out: AC50.
For experiment [9], the target named is Cytochrome P450 2C9 (Homo sapiens, UniProt P11712).
Experiment [10] in a line: Luminescence Cell-Based Dose Retest to Confirm Inhibitors of Cancer Stem Cells. [Related pubchem assays (depositor defined):AID2717, AID2721]. Format: functional. Particulars: Homo sapiens.

Active and inactive are the calls of the source. Some results are limits rather than exact numbers.

Sequence of Cytochrome P450 2C19 (P33261 whole entry): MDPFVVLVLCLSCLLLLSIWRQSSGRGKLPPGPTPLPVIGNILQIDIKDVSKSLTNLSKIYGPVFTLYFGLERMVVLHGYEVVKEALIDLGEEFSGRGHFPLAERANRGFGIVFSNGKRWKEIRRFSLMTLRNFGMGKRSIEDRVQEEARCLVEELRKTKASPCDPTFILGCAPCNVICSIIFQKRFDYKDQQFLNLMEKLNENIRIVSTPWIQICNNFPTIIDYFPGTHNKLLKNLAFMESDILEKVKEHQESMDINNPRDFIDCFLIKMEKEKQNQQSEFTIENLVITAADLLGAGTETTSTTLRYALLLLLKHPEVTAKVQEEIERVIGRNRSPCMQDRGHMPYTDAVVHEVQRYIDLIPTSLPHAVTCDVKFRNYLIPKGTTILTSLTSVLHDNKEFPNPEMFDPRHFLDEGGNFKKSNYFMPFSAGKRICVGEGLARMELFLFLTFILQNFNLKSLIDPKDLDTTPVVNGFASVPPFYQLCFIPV
Sequence of Cytochrome P450 2C9 (P11712 whole entry): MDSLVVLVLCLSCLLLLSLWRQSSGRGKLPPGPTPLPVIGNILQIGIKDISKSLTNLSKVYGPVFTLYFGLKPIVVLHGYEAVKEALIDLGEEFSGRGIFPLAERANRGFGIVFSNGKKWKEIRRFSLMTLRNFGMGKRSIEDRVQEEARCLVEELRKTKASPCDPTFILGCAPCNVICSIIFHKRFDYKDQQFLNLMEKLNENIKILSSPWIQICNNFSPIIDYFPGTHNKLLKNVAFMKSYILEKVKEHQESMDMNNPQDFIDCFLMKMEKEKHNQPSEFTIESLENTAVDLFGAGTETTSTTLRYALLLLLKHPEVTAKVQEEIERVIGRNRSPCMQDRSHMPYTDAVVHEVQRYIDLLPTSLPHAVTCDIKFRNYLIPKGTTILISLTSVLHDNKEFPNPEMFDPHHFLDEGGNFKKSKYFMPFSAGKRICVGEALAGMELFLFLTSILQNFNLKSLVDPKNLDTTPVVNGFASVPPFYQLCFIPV

With `CCCCNc1nc(CC)c2c(c1C#N)CCCC2`, the IC50 in [1] was > 47.1 µM (inactive). The EC50 in [2] was > 53 µM (inactive).

Turning to `C=CCNc1nc(-c2ccc(OC)cc2OC)cs1`, the values for the EC50 in experiment [3], in experiment [4] and in experiment [5] were 0.287 µM (active), 53.9 µM (active) and 26.8 µM (active), respectively.

Regarding `CCCCN1CC(=O)C(c2nc3ccccc3s2)=C1N`, the EC50 in experiment [3] is 13.8 µM (active); in experiment [4], > 120 µM (not active); in experiment [5], 30.8 µM (active).

Take `N#Cc1cc2cc3c(cc2nc1N1CCCCC1)OCCO3`: the EC50 is 0.139 µM (active) in experiment [3], 1.42 µM (active) in experiment [4] and 1.82 µM (active) in [5].

Turning to `COC(=O)c1ccc(Cc2ccccc2)o1`, the IC50 in experiment [1] is > 47.1 µM (inactive). The EC50 in experiment [2] was > 53 µM (inactive).

`Cc1cn(CCC(=O)Nc2ccc(N3CCOCC3)cc2)c2ccccc12`: the EC50 is 11.5 µM (active) in [3], 13.9 µM (active) in experiment [4] and 16.1 µM (active) in experiment [5].

For `C/C(=N/OCC(=O)Nc1ccccc1)c1cccs1`, the figures for the EC50 in experiment [3], in experiment [4] and in [5] were 13.4 µM (active), 16.8 µM (active) and 26.4 µM (active), respectively.

What is called AC50 is the midpoint of the concentration-response curve, whichever way the signal moves. Regarding `O=[N+]([O-])C(/C=C(\Cl)[N+](=O)[O-])=C1N(Cc2ccc(Cl)nc2)CCN1Cc1ccc(Cl)nc1`, the concentration at half-maximal activity (AC50) in experiment [6] was 11.4 µM (active); in experiment [8] it was 31.6 µM (inconclusive); in experiment [9], 12.6 µM (inconclusive). For the same molecule, the EC50 in experiment [7] is 8.49 µM (active).

Turning to `COC(=O)c1ccc(S(=O)(=O)N2CCc3ccccc32)cc1`, the EC50 is reported as > 120 µM (not active) in [3], > 120 µM (not active) in experiment [4] and > 60 µM (not active) in experiment [5].

For `CC1CCCC(C)N1C(=O)COC(=O)c1cccs1` (stereo not given), the IC50 in experiment [1] was > 47.1 µM (inactive). In experiment [2], the EC50 was > 53 µM (inactive).

In the case of `COC(=O)c1ccc2nc3c(cc2c1)[C@@H]1CCN2C(=O)CCC[C@H](C3)[C@H]12`, the IC50 in [1] is > 47.1 µM (inactive). The EC50 in experiment [2] was > 53 µM (inactive).

For the molecule `Cc1cccc(-n2c(N)c(C(=O)NCCN3CCOCC3)c3nc4ccccc4nc32)c1`, the EC50 in experiment [3], in experiment [4] and in experiment [5] was > 120 µM (not active) each time.

Turning to `CN1CCc2nc(SCC(=O)OC(C)(C)C)c(C#N)cc2C1`, the EC50 was 20.8 µM (active) in [3], 108 µM (active) in experiment [4] and 15.4 µM (active) in [5].

On to `COc1ccc(OCc2cc(C(=O)N3CCCC(OC)C3)no2)c2ccccc12` (stereo not given), for which the AC50 in experiment [6] was 15 µM (active). Moreover, the EC50 in experiment [7] was 3.9 µM (active).

With `CCOC(=O)c1nnn(CC(=O)N2N=C(c3ccccc3)CC2c2ccccc2)c1C(=O)OCC` (stereo not given), the IC50 in experiment [1] is > 47.1 µM (inactive). For the same molecule, the EC50 in experiment [2] was > 53 µM (inactive).

As to `CCOC(=O)c1cccc(NS(=O)(=O)Cc2ccccc2)c1`, the IC50 in experiment [1] was > 47.1 µM (inactive). The EC50 in [2] was > 53 µM (inactive).

For the molecule `COc1ccc(/C=C2\SC(=S)N(Cc3cccnc3)C2=O)cc1C`, the EC50 in experiment [3] was 38 µM (active); in experiment [4] it was 20.1 µM (active); in experiment [5], 11.1 µM (active).

For `Cc1nn(-c2ccc(N3CCCCC3)nn2)c(C)c1CCC(=O)Nc1cccc(F)c1`, the EC50 was 20.8 µM (active) in [3] and 2.66 µM (active) in experiment [5].

Regarding `Fc1cccc2sc(Nc3nc4ccccc4s3)nc12`, the EC50 in experiment [3] was 0.106 µM (active); in experiment [4], 1.58 µM (active); in experiment [5] it was 4.21 µM (active).

As for `CC(=O)C12CC(C)=C(C)CC1CC1C3CCC4=CC(=O)CCC4(C)C3CCC12C` (stereo not given), the AC50 in experiment [6] was 3.05 µM (active); in experiment [10], 5.78 µM (active). Further, the EC50 in [7] is 289 µM (inconclusive).

On to `CCOC(=O)c1c(C)sc2c1N(C(=O)CCl)c1cc(Cl)ccc1S2`, for which the values for the AC50 in [6] and in experiment [10] were 3.1 µM (active) and 2.22 µM (active), respectively. Besides, in experiment [7], the EC50 is 0.506 µM (active).

Consider `Cc1ccc(C(=O)COC(=O)CCN2C(=O)C3C4C=CC(C5CC45)C3C2=O)cc1` (stereo not given), for which, in [1], the IC50 was > 47.1 µM (inactive). Further, the EC50 in experiment [2] is > 53 µM (inactive).

With `CC(=O)c1c(C)[nH]c(C(=O)CSc2ccc(F)cc2)c1C`, the EC50 in [3] was 20 µM (active); in [4] it was 71.1 µM (active); in experiment [5], 30.2 µM (active).

As to `COCCn1c(-c2ccsc2)nc2c1c(=O)[nH]c(=O)n2CC(C)C`, the IC50 in experiment [1] was > 47.1 µM (inactive). For the same molecule, in experiment [2], the EC50 is > 53 µM (inactive).

Regarding `O=C(Oc1ccccc1N1C(=O)CCC1=O)c1ccco1`, the concentration at half-maximal activity (AC50) in experiment [6] is 6.7 µM (active). Besides, in experiment [7], the EC50 was 14.8 µM (active).

As for `CC1=C(C(=O)OCc2ccccc2)C(/C=C/c2ccccc2)N2C(=O)CCSC2=N1` (stereo not given), the IC50 in [1] was > 47.1 µM (inactive). In addition, the EC50 in [2] is > 53 µM (inactive).

With `Cc1ccc(C(=O)C2=C(O)C(=O)N(Cc3cccnc3)C2c2ccccc2[N+](=O)[O-])cc1` (stereo not given), the EC50 was 30.1 µM (active) in experiment [3], > 120 µM (not active) in [4] and 14.9 µM (active) in experiment [5].

The values are drawn from ChEMBL document CHEMBL1201862, “PubChem BioAssay data set” (2004).
